Experimental data from patent US20230330045A1 (priority 2020, published 2023).
Like-named read-outs stand apart in the source and are kept apart here.

How the values were obtained:
[1] = target: eel acetylcholinesterase (AChE) (Electrophorus electricus, UniProt O42275); experiment: Eel AChE fluorescence assay (AMPLEX Red kit); format: biochemical
Experimental: Enzymatic reactions consisted of 50 μM acetylcholine, 200 μM AIVIPLEX™ Red reagent, 1 U/mL horseradish peroxidase, 0.1 U/mL choline oxidase and 0.096 U/mL acetylcholinesterase, with 30 1% DMSO. […] Control reactions lacking acetylcholinesterase but containing 5 μM H2O2 in presence of compounds were analyzed at the same wavelength to exclude compounds that display assay interference. Dose-response curves were performed in duplicate.

[2] = target: human AChE (Homo sapiens, UniProt P22303); format: biochemical
Chain of human AChE (P22303 32-614): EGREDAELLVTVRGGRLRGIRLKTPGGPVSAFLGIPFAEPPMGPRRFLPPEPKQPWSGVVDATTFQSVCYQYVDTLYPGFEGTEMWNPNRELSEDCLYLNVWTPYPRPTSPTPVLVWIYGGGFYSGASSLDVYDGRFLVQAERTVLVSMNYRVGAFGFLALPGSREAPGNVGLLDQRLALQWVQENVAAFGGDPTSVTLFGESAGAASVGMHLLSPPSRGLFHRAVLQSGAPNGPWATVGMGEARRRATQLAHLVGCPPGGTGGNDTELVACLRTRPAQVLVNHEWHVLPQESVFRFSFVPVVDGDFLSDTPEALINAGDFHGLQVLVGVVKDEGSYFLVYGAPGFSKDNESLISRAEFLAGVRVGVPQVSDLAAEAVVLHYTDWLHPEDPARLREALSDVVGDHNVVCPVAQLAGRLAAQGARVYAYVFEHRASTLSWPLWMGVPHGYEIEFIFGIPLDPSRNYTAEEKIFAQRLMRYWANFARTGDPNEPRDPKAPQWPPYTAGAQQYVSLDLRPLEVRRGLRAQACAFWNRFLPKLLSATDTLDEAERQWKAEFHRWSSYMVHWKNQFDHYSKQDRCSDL

[3] = target: human butyrylcholinesterase (BuChE) (Homo sapiens, UniProt P06276); experiment: Human BuChE colorimetric activity kit assay; format: biochemical
Chain of human butyrylcholinesterase (BuChE) (P06276 29-602): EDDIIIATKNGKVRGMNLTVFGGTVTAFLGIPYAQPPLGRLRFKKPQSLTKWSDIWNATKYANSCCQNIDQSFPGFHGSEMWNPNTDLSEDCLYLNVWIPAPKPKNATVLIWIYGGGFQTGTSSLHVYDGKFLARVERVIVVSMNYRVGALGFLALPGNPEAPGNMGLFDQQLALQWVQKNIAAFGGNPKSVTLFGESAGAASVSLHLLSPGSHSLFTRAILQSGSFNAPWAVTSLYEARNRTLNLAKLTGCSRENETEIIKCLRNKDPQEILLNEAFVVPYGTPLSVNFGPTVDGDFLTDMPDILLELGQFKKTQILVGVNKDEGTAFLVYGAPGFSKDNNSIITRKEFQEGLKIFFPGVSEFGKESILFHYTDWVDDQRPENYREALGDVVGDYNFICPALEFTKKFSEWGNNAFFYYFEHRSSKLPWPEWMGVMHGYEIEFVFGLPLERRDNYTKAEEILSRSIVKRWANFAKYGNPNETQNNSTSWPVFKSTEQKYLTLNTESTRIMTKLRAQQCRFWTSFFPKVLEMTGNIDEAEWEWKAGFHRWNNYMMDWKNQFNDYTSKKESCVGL
Experimental: Reactions were performed in 384-well plates (781162, Greiner BioOne, GmbH, Kremsmunster, Austria) with 1% DMSO, according to the manufacturer's instructions with a few modifications. Compounds were incubated with enzyme for 30 minutes at room temperature before addition of substrate. Total volume of the reaction was 100 μL, we use 5 μL enzyme and kinetic reactions were performed at 30° C. for 60 minutes using a microplate reader sold under the tradename SPECTRAMAX™ iD5 (Molecular Devices, San Jose, California, United States of America) and an absorbance of 412 nm. Percent activity was calculated by calculating the slope of each reaction as stated above and comparing the positive control (PC) to sample (S): % Relative activity=SlopeS/SlopePCx100. We evaluated if assay reagents could interfere with the absorbance by adding compound or DMSO to a 150 μM solution of 5-thio-2-nitrobenzoic acid and measuring at […].

[4] = target: A2A (h) (Homo sapiens, UniProt P29274); experiment: SafetyScreen44 binding assay A2A (h); settings: agonist radioligand, read-out: % Inhibition of Specific Control Binding
Description: (§1) This panel included 38 binding assays and six functional assays of well-established targets and pathways that lead to off-target adverse drug reactions.

[5] = target: alpha 1A (h) (Homo sapiens, UniProt P35348); experiment: SafetyScreen44 binding assay alpha 1A (h); settings: antagonist radioligand, read-out: % Inhibition of Specific Control Binding
Description: as §1

[6] = target: beta 1 (h) (Homo sapiens, UniProt P08588); experiment: SafetyScreen44 binding assay beta 1 (h); settings: agonist radioligand, read-out: % Inhibition of Specific Control Binding
Description: as §1

[7] = target: beta 2 (h) (Homo sapiens, UniProt P07550); experiment: SafetyScreen44 binding assay beta 2 (h); settings: antagonist radioligand, read-out: % Inhibition of Specific Control Binding
Description: as §1

[8] = tested on: BZD (central); experiment: SafetyScreen44 binding assay BZD (central); settings: at 1 μM; agonist radioligand
Description: as §1

[9] = target: CB1 (h) (Homo sapiens, UniProt P21554); experiment: SafetyScreen44 binding assay CB1 (h); settings: agonist radioligand, read-out: % Inhibition of Specific Control Binding
Chain of CB1 (h) (P21554 whole entry): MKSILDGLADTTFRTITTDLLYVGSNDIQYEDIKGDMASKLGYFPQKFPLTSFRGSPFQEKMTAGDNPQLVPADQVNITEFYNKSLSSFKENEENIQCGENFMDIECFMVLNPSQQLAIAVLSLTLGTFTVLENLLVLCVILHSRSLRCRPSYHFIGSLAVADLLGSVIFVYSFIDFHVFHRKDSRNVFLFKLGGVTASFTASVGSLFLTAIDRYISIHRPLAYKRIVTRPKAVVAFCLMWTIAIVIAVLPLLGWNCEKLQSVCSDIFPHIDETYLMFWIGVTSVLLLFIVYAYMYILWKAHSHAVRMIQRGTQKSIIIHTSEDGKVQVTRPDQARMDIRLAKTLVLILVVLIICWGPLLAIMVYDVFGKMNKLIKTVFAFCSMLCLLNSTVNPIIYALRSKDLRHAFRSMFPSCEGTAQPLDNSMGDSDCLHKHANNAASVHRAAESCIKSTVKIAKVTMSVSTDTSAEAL
Description: as §1

[10] = target: CB2 (h) (Homo sapiens, UniProt P34972); experiment: SafetyScreen44 binding assay CB2 (h); settings: agonist radioligand, read-out: % Inhibition of Specific Control Binding
Description: as §1

[11] = target: CCK1 (CCKA) (h) (Homo sapiens, UniProt P32238); experiment: SafetyScreen44 binding assay CCK1 (CCKA) (h); settings: agonist radioligand, read-out: % Inhibition of Specific Control Binding
Description: as §1

[12] = target: ETA (h) (Homo sapiens, UniProt P25101); experiment: SafetyScreen44 binding assay ETA (h); settings: agonist radioligand, read-out: % Inhibition of Specific Control Binding
Chain of ETA (h) (P25101 21-427): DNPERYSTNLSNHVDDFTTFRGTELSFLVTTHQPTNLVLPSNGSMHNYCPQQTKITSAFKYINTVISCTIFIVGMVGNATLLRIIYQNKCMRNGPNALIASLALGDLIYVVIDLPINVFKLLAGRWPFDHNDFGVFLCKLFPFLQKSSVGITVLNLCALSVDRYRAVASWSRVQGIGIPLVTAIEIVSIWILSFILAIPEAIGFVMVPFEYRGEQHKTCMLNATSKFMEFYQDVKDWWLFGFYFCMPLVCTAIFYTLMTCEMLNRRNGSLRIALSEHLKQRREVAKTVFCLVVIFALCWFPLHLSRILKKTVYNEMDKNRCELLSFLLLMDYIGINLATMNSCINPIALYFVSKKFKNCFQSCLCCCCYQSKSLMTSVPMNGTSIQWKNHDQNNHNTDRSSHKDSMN
Description: as §1

[13] = tested on: NMDA; experiment: SafetyScreen44 binding assay NMDA; settings: at 1 μM; antagonist radioligand
Description: as §1

[14] = target: MAO-A (Rattus norvegicus, UniProt P21396); experiment: SafetyScreen44 binding assay MAO-A; settings: antagonist radioligand, read-out: % Inhibition of Specific Control Binding
Description: as §1

[15] = target: M3 (h) (Homo sapiens, UniProt P20309); experiment: SafetyScreen44 binding assay M3 (h); settings: antagonist radioligand, read-out: % Inhibition of Specific Control Binding
Description: as §1

[16] = target: N neuronal alpha 4beta 2 (h) (Homo sapiens, UniProt P17787+P43681); experiment: SafetyScreen44 binding assay N neuronal alpha 4beta 2 (h); settings: agonist radioligand, read-out: % Inhibition of Specific Control Binding
Description: as §1

[17] = target: mu (MOP) (h) (Homo sapiens, UniProt P35372); experiment: SafetyScreen44 binding assay mu (MOP) (h); settings: agonist radioligand, read-out: % Inhibition of Specific Control Binding
Chain of mu (MOP) (h) (P35372 whole entry): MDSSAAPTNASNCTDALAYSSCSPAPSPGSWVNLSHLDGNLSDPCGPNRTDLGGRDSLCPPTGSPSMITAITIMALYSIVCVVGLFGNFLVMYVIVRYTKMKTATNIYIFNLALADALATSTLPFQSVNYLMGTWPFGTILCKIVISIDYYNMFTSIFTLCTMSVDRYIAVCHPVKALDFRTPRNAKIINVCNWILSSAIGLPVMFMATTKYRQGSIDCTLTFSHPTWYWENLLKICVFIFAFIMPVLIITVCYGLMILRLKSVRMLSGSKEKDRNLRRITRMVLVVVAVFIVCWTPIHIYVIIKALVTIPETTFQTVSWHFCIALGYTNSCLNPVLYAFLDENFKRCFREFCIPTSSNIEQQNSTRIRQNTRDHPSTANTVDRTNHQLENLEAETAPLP
Description: as §1

[18] = target: 5-HT1A (h) (Homo sapiens, UniProt P08908); experiment: SafetyScreen44 binding assay 5-HT1A (h); settings: agonist radioligand, read-out: % Inhibition of Specific Control Binding
Description: as §1

[19] = target: 5-HT2A (h) (Homo sapiens, UniProt P28223); experiment: SafetyScreen44 binding assay 5-HT2A (h); settings: agonist radioligand, read-out: % Inhibition of Specific Control Binding
Chain of 5-HT2A (h) (P28223 whole entry): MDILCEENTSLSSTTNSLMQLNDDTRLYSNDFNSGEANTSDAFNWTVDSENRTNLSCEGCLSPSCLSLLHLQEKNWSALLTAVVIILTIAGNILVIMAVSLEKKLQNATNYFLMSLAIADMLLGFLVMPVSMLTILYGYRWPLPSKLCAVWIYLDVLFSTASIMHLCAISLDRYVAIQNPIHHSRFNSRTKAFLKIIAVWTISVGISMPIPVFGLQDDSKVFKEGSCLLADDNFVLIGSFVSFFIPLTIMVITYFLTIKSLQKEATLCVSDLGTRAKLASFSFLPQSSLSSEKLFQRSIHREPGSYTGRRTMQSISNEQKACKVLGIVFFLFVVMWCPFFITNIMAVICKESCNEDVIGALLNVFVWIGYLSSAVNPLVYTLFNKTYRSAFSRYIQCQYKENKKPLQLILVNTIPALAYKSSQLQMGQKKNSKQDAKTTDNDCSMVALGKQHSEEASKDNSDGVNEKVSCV
Description: as §1

[20] = target: 5-HT2B (h) (Homo sapiens, UniProt P41595); experiment: SafetyScreen44 binding assay 5-HT2B (h); settings: agonist radioligand, read-out: % Inhibition of Specific Control Binding
Description: as §1

[21] = target: 5-HT3 (h) (Homo sapiens, UniProt P46098); experiment: SafetyScreen44 binding assay 5-HT3 (h); settings: antagonist radioligand, read-out: % Inhibition of Specific Control Binding
Description: as §1

[22] = target: GR (h) (Homo sapiens, UniProt P04150); experiment: SafetyScreen44 binding assay GR (h); settings: agonist radioligand, read-out: % Inhibition of Specific Control Binding
Description: as §1

[23] = target: V1a (h) (Homo sapiens, UniProt P37288); experiment: SafetyScreen44 binding assay V1a (h); settings: agonist radioligand, read-out: % Inhibition of Specific Control Binding
Description: as §1

[24] = tested on: Ca2+ channel (L, dihydropyridine site); experiment: SafetyScreen44 binding assay Ca2+ channel (L, dihydropyridine site); settings: at 1 μM; antagonist radioligand
Description: as §1

[25] = target: hERG potassium channel (Homo sapiens, UniProt Q12809); experiment: SafetyScreen44 binding assay Potassium Channel hERG (human)-[3H] Dofetilide; settings: probe [3H] Dofetilide, read-out: % Inhibition of Specific Control Binding
Chain of hERG potassium channel (Q12809 whole entry): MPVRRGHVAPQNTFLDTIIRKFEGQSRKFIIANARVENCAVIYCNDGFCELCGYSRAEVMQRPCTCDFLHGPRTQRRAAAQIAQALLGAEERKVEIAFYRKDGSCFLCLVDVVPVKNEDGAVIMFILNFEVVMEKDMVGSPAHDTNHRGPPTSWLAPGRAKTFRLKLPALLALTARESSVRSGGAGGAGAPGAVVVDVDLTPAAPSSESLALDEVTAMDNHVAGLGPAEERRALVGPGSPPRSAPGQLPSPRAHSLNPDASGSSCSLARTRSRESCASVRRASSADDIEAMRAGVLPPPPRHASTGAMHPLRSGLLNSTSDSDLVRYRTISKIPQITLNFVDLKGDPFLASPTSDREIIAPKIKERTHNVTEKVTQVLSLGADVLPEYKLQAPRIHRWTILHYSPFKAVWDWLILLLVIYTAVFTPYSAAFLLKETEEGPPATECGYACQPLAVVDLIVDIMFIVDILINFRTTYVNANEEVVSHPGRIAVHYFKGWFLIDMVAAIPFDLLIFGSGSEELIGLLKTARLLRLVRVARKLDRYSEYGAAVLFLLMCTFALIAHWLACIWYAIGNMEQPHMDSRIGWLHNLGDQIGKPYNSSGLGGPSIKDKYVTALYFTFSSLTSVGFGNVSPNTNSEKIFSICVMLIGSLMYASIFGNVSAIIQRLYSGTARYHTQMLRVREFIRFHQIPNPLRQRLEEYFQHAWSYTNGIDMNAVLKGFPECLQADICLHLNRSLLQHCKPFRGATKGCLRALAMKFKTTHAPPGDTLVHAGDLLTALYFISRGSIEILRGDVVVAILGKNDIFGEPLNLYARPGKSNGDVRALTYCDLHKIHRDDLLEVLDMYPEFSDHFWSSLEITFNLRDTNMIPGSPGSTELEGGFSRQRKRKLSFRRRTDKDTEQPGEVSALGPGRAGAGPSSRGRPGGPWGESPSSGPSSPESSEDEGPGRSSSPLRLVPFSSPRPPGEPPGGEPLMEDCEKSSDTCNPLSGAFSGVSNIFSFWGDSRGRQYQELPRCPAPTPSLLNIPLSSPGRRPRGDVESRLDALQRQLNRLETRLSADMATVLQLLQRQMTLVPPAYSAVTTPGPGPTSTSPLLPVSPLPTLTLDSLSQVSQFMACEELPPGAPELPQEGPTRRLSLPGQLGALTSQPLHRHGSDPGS
Description: as §1

[26] = tested on: KV channel; experiment: SafetyScreen44 binding assay KV channel; settings: at 1 μM; antagonist radioligand
Description: as §1

[27] = target: 5-HT transporter (h) (Homo sapiens, UniProt P31645); experiment: SafetyScreen44 binding assay 5-HT transporter (h); settings: antagonist radioligand, read-out: % Inhibition of Specific Control Binding
Description: as §1

[28] = target: COX1(h) (Homo sapiens, UniProt P23219); experiment: SafetyScreen44 enzyme assay COX1(h); format: biochemical; settings: read-out: % Inhibition of Control Values
Description: as §1

[29] = target: PDE3A (h) (Homo sapiens, UniProt Q14432); experiment: SafetyScreen44 enzyme assay PDE3A (h); format: biochemical; settings: read-out: % Inhibition of Control Values
Description: as §1

[30] = target: PDE4D2 (h) (Homo sapiens, UniProt Q08499); experiment: SafetyScreen44 enzyme assay PDE4D2 (h); format: biochemical; settings: read-out: % Inhibition of Control Values
Description: as §1

[31] = target: Lck kinase (h) (Homo sapiens, UniProt P06239); experiment: SafetyScreen44 enzyme assay Lck kinase (h); format: biochemical; settings: read-out: % Inhibition of Control Values
Description: as §1

Chain of eel acetylcholinesterase (AChE) (O42275 24-633): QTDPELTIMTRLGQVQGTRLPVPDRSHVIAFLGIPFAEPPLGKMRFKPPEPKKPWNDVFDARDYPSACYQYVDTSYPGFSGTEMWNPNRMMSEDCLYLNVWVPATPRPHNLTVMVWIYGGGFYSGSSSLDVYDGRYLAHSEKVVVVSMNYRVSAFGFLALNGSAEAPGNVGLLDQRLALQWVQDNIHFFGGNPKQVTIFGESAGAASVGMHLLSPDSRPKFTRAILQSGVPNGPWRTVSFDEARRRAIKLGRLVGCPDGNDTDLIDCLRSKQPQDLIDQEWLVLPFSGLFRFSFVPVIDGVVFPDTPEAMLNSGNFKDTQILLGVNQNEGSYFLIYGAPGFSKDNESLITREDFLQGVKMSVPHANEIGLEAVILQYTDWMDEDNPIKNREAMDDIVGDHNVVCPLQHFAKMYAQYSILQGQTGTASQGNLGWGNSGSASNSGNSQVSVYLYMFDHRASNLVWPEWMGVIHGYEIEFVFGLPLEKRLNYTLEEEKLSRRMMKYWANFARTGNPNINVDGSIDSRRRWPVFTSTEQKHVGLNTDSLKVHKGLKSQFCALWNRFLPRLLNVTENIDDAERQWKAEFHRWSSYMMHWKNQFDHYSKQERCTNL

## CCN(CC)CCOc1ccc2c(c1)C(=O)c1cc(OCCN(CC)CC)ccc1-2 [tilorone]
[1]; dose-response, 1% DMSO
  IC50: 14.4 nM
[1]; eel AChE activity, at 20 μM, read-out: Percentage inhibition
  inhibition at 20 µM: 103%
[1]; parallel dose-response with 5 μM H2O2
  assay interference test versus enzyme-free H2O2 reaction: likely represent true inhibition of the enzyme
[1]; read-out: inhibition of enzyme activity compared to DMSO control (screen)
  inhibition at 20 µM: ≥ 50%
[1]; sixteen-point serial dilution, four-parameter fit
  Hill slope, eel AChE dose-response: 0.62
[2]; average of the colorimetric and Eurofins values, read-out: average IC50 for human AChE
  IC50: 64.6 nM
[2]; colorimetric kit, n=2, read-out: IC50 against human AChE (colorimetric assay)
  IC50: 73.3 nM
[2]; two-fold 16-point dilution from 20 μM
  Hill slope, human AChE colorimetric dose-response: 0.84
[3]
  IC50: > 50 nM
[3]; at 100 μM, single point, read-out: inhibition of human BChE
  inhibition at 100 µM: 50%
[4]
  inhibition at 1 µM: -4%
[5]
  inhibition at 1 µM: 26%
[6]
  inhibition at 1 µM: 5%
[7]
  inhibition at 1 µM: -6%
[8]
  % Inhibition of Specific Control Binding: −9%
[9]
  inhibition at 1 µM: 0%
[10]
  inhibition at 1 µM: -16%
[11]
  inhibition at 1 µM: -5%
[12]
  inhibition at 1 µM: 5%
[13]
  % Inhibition of Specific Control Binding: −10%
[14]
  inhibition at 1 µM: 3%
[15]
  inhibition at 1 µM: 17%
[16]
  inhibition at 1 µM: 0%
[17]
  inhibition at 1 µM: -4%
[18]
  inhibition at 1 µM: 12%
[19]
  inhibition at 1 µM: 25%
[20]
  inhibition at 1 µM: -9%
[21]
  inhibition at 1 µM: 6%
[22]
  inhibition at 1 µM: -5%
[23]
  inhibition at 1 µM: -1%
[24]
  % Inhibition of Specific Control Binding: 4%
[25]
  inhibition at 1 µM: -4%
[26]
  % Inhibition of Specific Control Binding: 0%
[27]
  inhibition at 1 µM: 44%
[28]
  inhibition at 1 µM: -17%
[29]
  inhibition at 1 µM: 2%
[30]
  inhibition at 1 µM: -15%
[31]
  inhibition at 1 µM: 13%
